Assay [1] concerns L. reuteri DSM 17938. The experiment in a line: MIC to tetracycline with Etest. Type of assay: cell-based, Lactobacillus reuteri. As to conditions: strain DSM 17938; MRS agar. The method, then:
(§1) The bacteria were grown in MRS broth for 16 h at 37° C. After dilution to 10^5 cfu ml^−1, 1 μl of each bacterial strain was spotted on MRS plates containing lincomycin or clindamycin (concentrations 0, 0.125, 0.25, 0.5, 1, 2, 4, 8 and 16 μg ml^−1). After adsorption of the drops, the plates were incubated in anaerobic atmosphere at 37° C. for 24 h. The MIC was defined as the lowest antibiotic concentration for which there was no visible bacterial growth. MICs to tetracycline were tested with Etest (AB Biodisk) on bacteria growing on MRS agar (Oxoid) plates according to the instructions from the manufacturer.

Assay [2] deals with L. reuteri DSM 17686. Kind of assay: MIC to tetracycline with Etest. The settings on record: strain DSM 17686; MRS agar. Type of assay: cell-based, Lactobacillus reuteri. The protocol: as §1
Assay [3] has as its system L. reuteri ATCC 55730. Kind of assay: MIC to tetracycline with Etest. Type of assay: cell-based, Lactobacillus reuteri. The settings on record: Limosilactobacillus reuteri, ATCC55730; strain ATCC 55730; MRS agar; read-out: MIC to tetracycline (E-test). The protocol: as §1
For assay [4], the system named is L. reuteri DSM 17938. Kind of assay: MIC on MRS plates containing lincomycin or clindamycin. As to conditions: strain DSM 17938, anaerobic, 37° C. Type of assay: cell-based, Lactobacillus reuteri. The method, then: (§2) The bacteria were grown in MRS broth for 16 h at 37° C. […] After adsorption of the drops, the plates were incubated in anaerobic atmosphere at 37° C. for 24 h. The MIC was defined as the lowest antibiotic concentration for which there was no visible bacterial growth.

Assay [5] concerns L. reuteri DSM 17686. The description is as above. Type of assay: cell-based, Lactobacillus reuteri. As to conditions: 37° C., 24 h. The method, then:
as §2

Assay [6] concerns L. reuteri DSM 20016. The description is as above. The class given is cell-based, Lactobacillus reuteri. The settings on record: Limosilactobacillus reuteri, DSM20016, strain DSM 20016 (negative control), anaerobic, 37° C., 24 h. The method, then:
as §2

The test system of assay [7] is L. reuteri ATCC 55730. The description is as above. The class given is cell-based, Lactobacillus reuteri. As to conditions: Limosilactobacillus reuteri, ATCC55730, strain ATCC 55730, anaerobic, 37° C., 24 h. The protocol: as §2
Assay [8] has as its system 1063. Described as above. As to conditions: strain 1063, anaerobic, 37° C., 24 h. The class given is cell-based. The protocol:
as §2

[9] abbreviates: Limosilactobacillus reuteri, DSM17938, 24 h, read-out: MIC.
The mark [10] stands for this setting: Limosilactobacillus reuteri, DSM17686, strain DSM 17686, anaerobic, read-out: MIC.

In general, MIC refers to the least concentration at which growth counts as inhibited.

In brackets after ≈: the same amount, converted by molar mass. Where two headings read alike, the source gives them in different places.

As to `CN(C)[C@@H]1C(O)=C(C(N)=O)C(=O)[C@@]2(O)C(O)=C3C(=O)c4c(O)cccc4[C@@](C)(O)[C@H]3C[C@@H]12` [tetracycline], the “MIC to tetracycline (E-test)” value in assay [1] and in assay [2] was 12-16 μml-1 each time. Moreover, the minimum inhibitory concentration (MIC) in assay [3] is more than 256 µg/mL.
For the compound `CCC[C@@H]1C[C@@H](C(=O)N[C@@H]([C@H]2O[C@H](SC)[C@H](O)[C@@H](O)[C@H]2O)[C@@H](C)O)N(C)C1` [lincomycin], the MIC was 0.25 µg/mL (≈ 0.615 µM) in assay [4] (setting [9]); 0.5 µg/mL (≈ 1.23 µM) in assay [4] (24 h); more than 16 µg/mL in assay [5] (setting [10]); more than 16 µg/mL in assay [5] (strain DSM 17686, anaerobic); 0.25 µg/mL (≈ 0.615 µM) in assay [6]; more than 16 µg/mL in assay [7]. The compound further registered a minimal inhibitory concentration (MIC) in assay [8] of more than 16 µg/mL.
For the compound `CCC[C@@H]1C[C@@H](C(=O)N[C@@H]([C@H]2O[C@H](SC)[C@H](O)[C@@H](O)[C@H]2O)[C@H](C)Cl)N(C)C1` [clindamycin], the minimum inhibitory concentration (MIC) in assay [4] (setting [9]) was less than 0.125 µg/mL; in assay [5] (setting [10]) it was less than 0.125 µg/mL; in assay [6], less than 0.125 µg/mL; in assay [7], less than 0.125 µg/mL; in assay [8] it was more than 16 µg/mL.
